The values below come from patent publication US4732977A, “Carbapenem antibiotics” (priority 1986, dated 1988).

Converted amounts (≈) assume the structure as drawn. Where two headings read alike, the source gives them in different places.

Series [1] can be described thus: Half-life (stability) in buffer solution. The note with it: for half-life at 100 µM: 10^-4 M. It counts as physicochemical. Here is the method: T1/2 =9.8 h (measured at a concentration of 10^-4 M in phosphate buffer pH 7.4 at 36.8° C.).
UV (phosphate buffer, pH 7.4) λmax 294 nm (ε=8,202); T1/2 (phosphate buffer, pH 7.4, M=0.967, T=37° C.) 9.1 h.
(c of 10^-4 M in pH 7.4 phosphate buffer.
.tau.1/2 =20.8 h measured at 37° C. in buffer (pG 7.4) for a concentration of 10^-4 M.
.tau.1/2 =12.5 h measured at 37° C. in buffer pH 7.4 for a concentration of 10^-4 M.
h (measured for a concentration of 10^-4 M at 36.8° C. in buffer pH 7.4).
.tau.1/2 =26.0 h (measured for a concentration of 10^-4 M at 36.8° C. in buffer pH 7.4).
.tau.1/2 =16.6 h (measured at 36.8° C., pH 7.4 for a concentration of 10^-4 M) and (5R, 6S) 6-(1R-hydroxyethyl)7-oxo-3-[1,2,6-trimethylpyridinium-4-yl)methylthio]-1-azabicyclo[3.2.0 hept-2-ene-2-carboxylate, 0.010 g, 0.7%;
.tau.1/2 =11.6 h (measured for a concentration of 10^-4 M at 36.8° C. in buffer pH 7.4).
.tau.1/2 =13.4 h (measured for a concentration of 10^-4 M at 36.8° C. in buffer pH 7.4).
.tau.1/2 =14.4 h (measured for a concentration of 10^-4 M at 36.8° C. in buffer pH 7.4).
T 1/2: 10.2 h (biological buffer).
.tau.1/2 =10.2 h measured at 36.8° C. for a concentration of 10^-4 M in buffer pH 7.4.

A further series deals with S. faecalis A20688. The series is described as follows: M.I.C., tube dilution. The class given is cell-based. The note with it: Enterococcus faecalis, A20688, overnight incubation at 37° C., Nutrient Broth; read-out: MIC.
Series [2] in a line: Blood levels in mice after intramuscular administration.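 Also: compounds dissolved in 0.1 M phosphate buffer at pH 7, data from one experiment using four mice for each compound.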 The note with it: mouse, blood, im, 20 mg/kg.
Excerpt: Compounds were solubilized in 0.1 M phosphate buffer pH 7.
a single test; 4 mice used per compound.
Compounds were solubilized in 0.1 M phosphate buffer, pH 7.
on a single test; 4 mice per compound.
The next series deals with P. vulgaris A21559. The series is described as follows: M.I.C., tube dilution. The class given is cell-based. The note with it: Proteus vulgaris, A21559, overnight incubation at 37° C., Nutrient Broth; read-out: MIC.
The subject of another series is S. pyogenes A-9604. The series is described as follows: M.I.C., tube dilution. The class given is cell-based. The note with it: Streptococcus pyogenes, A9604; overnight incubation at 37° C., Nutrient Broth; read-out: MIC.
A further series has as its system S. pneumoniae A-9585. The series is described as follows: M.I.C., tube dilution. It counts as cell-based. The note with it: Streptococcus pneumoniae, A9585; overnight incubation at 37° C., Nutrient Broth; read-out: MIC.
Another series has as its system P. aeruginosa A21213. The series is described as follows: M.I.C., tube dilution. It counts as cell-based. The note with it: Pseudomonas aeruginosa.
The next series deals with S. aureus A-9537. The series is described as follows: M.I.C., tube dilution. The class given is cell-based. The settings on record: Staphylococcus aureus, A9537; +50% serum; read-out: MIC.
Where [3] appears, read: (phosphate) buffer pH 7.4, 37° C., read-out: half-life in solution (converted).
Setting [4] is: (phosphate) buffer pH 7.4, 36.8° C., read-out: T1/2 (half-life in solution) (converted).
The mark [5] stands for this setting: biological buffer, read-out: T 1/2 (half-life in solution) (converted).

For the compound `Cc1cccc(CSC2=C(C(=O)[O-])N3C(=O)[C@H]([C@@H](C)O)C3[C@H]2C)[n+]1C` (stereo in doubt) [Example 25, (5R,6S) 3-[(1,6-dimethylpyridinium-2-yl)methylthio]-6-(1R-hydroxyethyl)-4R-methyl-7-oxo-1-azabicyclo[3.2.0]hept-2-ene-2-carboxylate], the half-life at 100 µM in series [1] (setting [3]) is 20.8 h.
As to `Cc1ccc(CSC2=C(C(=O)[O-])N3C(=O)[C@H]([C@@H](C)O)C3[C@H]2C)c[n+]1C` (stereo in doubt) [Example 34, (5R,6S) 3-[(1,6-dimethylpyridinium-3-yl)methylthio]-6-(1R-hydroxyethyl)-4R-methyl-7-oxo-1-azabicyclo[3.2.0]hept-2-ene-2-carboxylate], in series [1] (setting [4]), the half-life at 100 µM is 27.8 h.
On the same count and under the same terms, then `Cc1cc(CSC2=C(C(=O)[O-])N3C(=O)[C@H]([C@@H](C)O)C3[C@H]2C)c[n+](C)c1` (stereo in doubt) [Example 35, (5R,6S) 3-[(1,5-dimethylpyridinium-3-yl)methylthio]-6-(1R-hydroxyethyl)-4R-methyl-7-oxo-1-azabicyclo[3.2.0]hept-2-ene-2-carboxylate], with 26 h.
Turning to `Cc1cc(C)[n+](C)c(CSC2=C(C(=O)[O-])N3C(=O)[C@H]([C@@H](C)O)C3[C@H]2C)c1` (stereo in doubt) [Example 51A, (5R,6S) 6-(1R-Hydroxyethyl)-4R-methyl-7-oxo-3-[(1,4,6-trimethylpyridinium-2-yl)-methylthio]-1-azabicyclo[3.2.0]hept-2-ene-2-carboxylate], the half-life at 100 µM in series [1] (phosphate buffer, 36.7° C., read-out: t 1/2 (half-life in solution) (converted)) is 22.3 h.
For the compound `Cc1cc(CSC2=C(C(=O)[O-])N3C(=O)[C@H]([C@@H](C)O)C3[C@H]2C)cc(C)[n+]1C` (stereo in doubt) [Example 51B, (5R,6S) 6-(1R-Hydroxyethyl)-4R-methyl-7-oxo-3-[(1,2,6-trimethylpyridinium-4-yl)-methylthio]-1-azabicyclo[3.2.0]hept-2-ene-2-carboxylate], the half-life at 100 µM in series [1] (setting [4]) is 29.8 h.
Consider `Cc1c(CSC2=C(C(=O)[O-])N3C(=O)[C@H]([C@@H](C)O)C3[C@H]2C)sc[n+]1C` (stereo in doubt) [Example 54, (5R,6S) 3-[(3,4-Dimethylthiazolium-5-yl)methylthio]-6-(1'R-hydroxyethyl)-4R-methyl-7-oxo-1-azabicyclo[3.2.0]hept-2-ene-2-carboxylate], for which the half-life at 100 µM in series [1] (setting [3]) was 19 h.
On to `Cc1cc(CSC2=C(C(=O)[O-])N3C(=O)[C@H]([C@@H](C)O)[C@H]3C2)cc(C)[n+]1C` [(5R,6S) 6-(1R-hydroxyethyl)-7-oxo-3-[(1,2,6-trimethylpyridinium-4-yl)methylthio]-1-azabicyclo[3.2.0]hept-2-ene-2-carboxylate], for which, in series [1] (setting [4]), the half-life at 100 µM is 11.6 h.
Same read-out and setting: then `Cc1cc(C)[n+](C)c(CSC2=C(C(=O)[O-])N3C(=O)[C@H]([C@@H](C)O)[C@H]3C2)c1` [(5R,6S) 6-(1R-hydroxyethyl)-7-oxo-3-[(1,4,6-trimethylpyridinium-2-yl)methylthio]-1-azabicyclo[3.2.0]hept-2-ene-2-carboxylate], with 16.6 h.
Usually MIC stands for the lowest concentration that inhibits growth of the organism. What is called AUC is the area under the concentration-time curve, a measure of exposure. One may read the Cmax as the highest concentration seen after dosing. Consider `C[C@@H](O)[C@H]1C(=O)N2C(C(=O)[O-])=C(SCc3scc[n+]3C)C[C@H]12` [Example 11, 3-[2-(N-Methylthiazolium)methylthio]-6α-[1-(R)-hydroxyethyl]-7-oxo-1-azabicyclo(3.2.0)hept-2-ene-2-carboxylate], for which the MIC in the series with S. faecalis A20688 is 0.5 mg/L (≈ 1.47 µM). In series [2], this compound returned an AUC of 7.4 µg·h/mL, a Cmax of 14.9 µg/mL and a half-life of 0.183 h. Moreover, the minimum inhibitory concentration (MIC) in the series with P. vulgaris A21559 is 0.03 mg/L (≈ 0.0881 µM).
With `C[C@@H](O)[C@H]1C(=O)N2C(C(=O)[O-])=C(SCc3n(Cc4ccccc4)cc[n+]3C)C[C@H]12` [Example 13, 3-(N Methyl-N'-benzylimidazole-2-yl-methanethio)-6α-[1-(R)-hydroxyethyl]-7-oxo-1-azabicyclo(3.2.0)hept-2-ene-2-carboxylate], the MIC in the series with S. pyogenes A-9604 was found to be 0.0005 mg/L (≈ 0.00121 µM); in the series with S. pneumoniae A-9585, 0.0005 mg/L (≈ 0.00121 µM); with P. aeruginosa A21213 (A21213, overnight incubation at 37° C., Nutrient Broth, read-out: MIC), 2 mg/L (≈ 4.84 µM); in the series with P. vulgaris A21559 it was 0.008 mg/L (≈ 0.0193 µM). In addition, in series [2], the AUC stood at 6.4 µg·h/mL. Further, the Cmax in series [2] is 14.8 µg/mL. For the same compound, in series [2], the half-life stood at 0.183 h.
Consider `C[C@@H](O)[C@H]1C(=O)N2C(C(=O)[O-])=C(SCc3cs[n+](C)n3)C[C@H]12` [Example 16, (5R,6S) 6-(1R-hydroxyethyl)-3-(2-methyl-1,2,3-thiadiazolium-4-ylmethylthio)-7-oxo-1-azabicyclo[3.2.0]hept-2-ene-2-carboxylate], for which the MIC is 1 mg/L (≈ 2.93 µM) with S. faecalis A20688, 0.13 mg/L (≈ 0.381 µM) against P. aeruginosa A21213 (A21213) and 0.03 mg/L (≈ 0.0879 µM) in the series with P. vulgaris A21559. The half-life at 100 µM in series [1] (setting [4]) is 9.8 h.
As to `C[C@@H](O)[C@H]1C(=O)N2C(C(=O)[O-])=C(SCc3n(C)nc[n+]3C)C[C@H]12` [Example 19, 3-[5-(1,4-dimethyl-1,2,4-triazolium)-methanethio]-6α-[1-(R)-hydroxyethyl]-7-oxo-1-azabicyclo[3.2.0]hept-2-ene-2-carboxylate], the MIC with S. aureus A-9537 worked out at 0.008 mg/L (≈ 0.0236 µM). Further, in series [2], the AUC came to 15.1 µg·h/mL, the Cmax came to 27 µg/mL and the half-life stood at 0.278 h. For the same compound, in series [1] (phosphate buffer, pH 7.4, M=0.967, T=37° C., read-out: T1/2 (half-life in solution) (converted)), the half-life was 9.1 h. The MIC in the series on P. vulgaris A21559 was determined as 0.016 mg/L (≈ 0.0473 µM).
As for `Cc1cccc(CSC2=C(C(=O)[O-])N3C(=O)[C@H]([C@@H](C)O)[C@H]3C2)[n+]1C` [Example 26, (5R,6S) 3-[(1,6-dimethylpyridinium-2-yl)methylthio]-6-(1R-hydroxyethyl)-7-oxo-1-azabicyclo[3.2.0]hept-2-ene-2-carboxylate], in series [1] (setting [3]), the half-life at 100 µM was 12.5 h.
`Cc1cc(CSC2=C(C(=O)[O-])N3C(=O)[C@H]([C@@H](C)O)[C@H]3C2)c[n+](C)c1` [Example 37]: in series [1] (setting [4]), the half-life at 100 µM was 13.4 h.
Take `Cc1ccc(CSC2=C(C(=O)[O-])N3C(=O)[C@H]([C@@H](C)O)[C@H]3C2)c[n+]1C` [Example 38, (5R,6S) 3-[(1,6-dimethylpyridinium-3-yl)methylthio]-6-(1R-hydroxyethyl)-7-oxo-1-azabicyclo[3.2.0]hept-2-ene-2-carboxylate]: the half-life at 100 µM in series [1] (setting [4]) is 14.4 h.
For the compound `C[C@@H](O)[C@H]1C(=O)N2C(C(=O)[O-])=C(SCc3cncc[n+]3C)C[C@H]12` [Example 45, (5R,6S)-6-(1R-Hydroxyethyl)-3-[(1-methyl-1,4-pyraziinium-2-yl)methylthio]-7-oxo-1-azabicyclo(3.2.0)-hept-2-ene-2-carboxylate], the half-life in series [1] (setting [5]) was 10.2 h.
Take `C[C@@H](O)[C@H]1C(=O)N2C(C(=O)[O-])=C(SCc3cncc[n+]3C)[C@H](C)[C@H]12` [Example 46, (5R,6S)-6-(1R-Hydroxyethyl)-4R-methyl-3-[(1-methyl-1,4-pyrazinium-2-yl)-methylthio]-7-oxo-1-azabicyclo[3.2.0]-hept-2-ene-2-carboxylate]: the half-life in series [1] (biological buffer, unit inferred, read-out: T1/2 (half-life in solution) (converted)) is 12.3 h.
For the compound `C[C@@H](O)[C@H]1C(=O)N2C(C(=O)[O-])=C(SCc3cn(C)[n+](C)c3)C[C@H]12` [Example 47], in series [1] (setting [5]), the half-life was 15.2 h.
For the compound `Cc1c(CSC2=C(C(=O)[O-])N3C(=O)[C@H]([C@@H](C)O)[C@H]3C2)sc[n+]1C` [Example 50], in series [1] (pH 7.4 phosphate buffer, temperature not given, read-out: half-life in solution (converted)), the half-life at 100 µM is 11 h.
As to `COCC[n+]1ccccc1CSC1=C(C(=O)[O-])N2C(=O)[C@H]([C@@H](C)O)[C@H]2C1` [Example 52, (5R,6S) 6-(1R-hydroxyethyl)-3-[{1-(2-methoxyethyl)pyridinium-2-yl}methylthio]-7-oxo-1-azabicyclo[3.2.0]hept-2-ene-2-carboxylate], the half-life at 100 µM in series [1] (setting [4]) is 9.9 h.
With `C#CCC[n+]1ccccc1CSC1=C(C(=O)[O-])N2C(=O)[C@H]([C@@H](C)O)[C@H]2C1` [Example 53, (5R,6S) 3[(1-{but-3-yn-1-ylpyridinium-2-yl)}methylthio]-6-(1R-hydroxyethyl)-7-oxo-1-azabicyclo[3.2.0]hept-2-ene-2-carboxylate], in series [1] (setting [4]), the half-life at 100 µM was 10.2 h.
